From the supplement of paper PMC6004109

Legend:
Details in all cases: temperature: 37 °C
[1] = tested on: Candida glabrata ZIM 2344 (RPMI); test: FICI maximum (fractional inhibitory concentration index, Loewe) (dimensionless); higher = less synergy / more antagonism
In short: (§1)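 Plates held 100 µl of drug dilutions and 100 µl of yeast at 3–5 × 10^3 cells/ml, in RPMI for clinical isolates or YPD for C. glabrata ATCC 2001 and a strain derived from it. After 48 h at 37 °C, background-subtracted OD600 was read in at least biological triplicates, following CLSI M27-A3 checkerboard broth microdilution for two-drug combinations. Each entry is the minimum or maximum Loewe fractional inhibitory concentration index over the combination surface, summing each drug's MIC in combination over its MIC alone, with MIC50 or MIC90 chosen by drug.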

[2] = tested on: Saccharomyces cerevisiae ZIM 2558 (RPMI); test: as above
In short: as §1

[3] = tested on: Saccharomyces cerevisiae ZIM 2260 (RPMI); test: as above
In short: as §1

[4] = tested on: Candida glabrata ZIM 2365 (RPMI); test: as above
In short: as §1

[5] = tested on: Candida glabrata ZIM 2382 (RPMI); test: as above
In short: as §1

[6] = tested on: Saccharomyces cerevisiae ZIM 2566 (RPMI); test: as above
In short: as §1

[7] = tested on: Saccharomyces cerevisiae ZIM 2247 (RPMI); test: as above
In short: as §1

[8] = tested on: Candida glabrata ZIM 2385 (RPMI); test: as above
In short: as §1

[9] = tested on: Candida glabrata ZIM 2389 (RPMI); test: as above
In short: as §1

[10] = tested on: Saccharomyces cerevisiae ZIM 2269 (RPMI); test: as above
In short: as §1

[11] = tested on: Candida glabrata ATCC 2001 (YPD); test: FICI minimum (fractional inhibitory concentration index, Loewe) (dimensionless); higher = less synergy / more antagonism
In short: as §1

[12] = tested on: Candida glabrata ATCC 2001 pdr1 deletion mutant (YPD); test: as above
In short: as §1

[13] = tested on: Candida glabrata ATCC 2001 (YPD); test: FICI maximum (fractional inhibitory concentration index, Loewe) (dimensionless); higher = less synergy / more antagonism
In short: as §1

[14] = tested on: Candida glabrata ATCC 2001 pdr1 deletion mutant (YPD); test: as above
In short: as §1

[15] = tested on: Candida glabrata ATCC 2001 (YPD); test: Bliss independence sum of statistically significant ΔE (measured minus predicted growth inhibition) over checkerboard surface (fraction (sum of ΔE; 1 = 100%)); higher = more synergy
[16] = tested on: Candida glabrata ATCC 2001 pdr1 deletion mutant (YPD); test: as above

Row | Structure (SMILES) | FICI maximum [1] | FICI maximum [2] | FICI maximum [3] | FICI maximum [4] | FICI maximum [5] | FICI maximum [6] | FICI maximum [7] | FICI maximum [8] | FICI maximum [9] | FICI maximum [10] | FICI minimum [11] | FICI minimum [12] | FICI maximum [13] | FICI maximum [14] | Bliss independence sum [15] | Bliss independence sum [16]
1 | CC1(C)S[C@@H]2[C@H](NC(=O)[C@H](N)c3ccc(O)cc3)C(=O)N2[C@H]1C(=O)O [amoxicillin] + CCC(C)n1ncn(-c2ccc(N3CCN(c4ccc(OCC5COC(Cn6cncn6)(c6ccc(Cl)cc6Cl)O5)cc4)CC3)cc2)c1=O [itraconazole] | 0.375 | 0.75 | 1.25 | 1.25 | 2.25 | 2.12 | 1.25 | 1.25 | 1.25 | 1.25 |  |  |  |  |  | 
2 | CC1(C)S[C@@H]2[C@H](NC(=O)[C@H](N)c3ccc(O)cc3)C(=O)N2[C@H]1C(=O)O [amoxicillin] + C[C@@H]1[C@H](O)[C@@H](C)/C=C/C=C/C=C/C=C/C=C/C=C/C=C/[C@H](O[C@@H]2O[C@H](C)[C@@H](O)[C@H](N)[C@@H]2O)C[C@@H]2O[C@](O)(C[C@@H](O)C[C@@H](O)[C@H](O)CC[C@@H](O)C[C@@H](O)CC(=O)O[C@H]1C)C[C@H](O)[C@H]2C(=O)O [amphotericin B] | 1.25 | 8.78 | 1.25 | 1.25 | 1.25 | 4.25 | 1.25 | 1.25 | 1.25 | 1.25 |  |  |  |  |  | 
3 | CN(Cc1cnc2nc(N)nc(N)c2n1)c1ccc(C(=O)N[C@@H](CCC(=O)O)C(=O)O)cc1 [methotrexate] + CCC(C)n1ncn(-c2ccc(N3CCN(c4ccc(OCC5COC(Cn6cncn6)(c6ccc(Cl)cc6Cl)O5)cc4)CC3)cc2)c1=O [itraconazole] | 1.16 | 1.08 | 2.04 | 1.16 | 2.16 | 1.16 | 1.16 | 2.16 | 2.04 | 1.16 |  |  |  |  |  | 
4 | CN(Cc1cnc2nc(N)nc(N)c2n1)c1ccc(C(=O)N[C@@H](CCC(=O)O)C(=O)O)cc1 [methotrexate] + C[C@@H]1[C@H](O)[C@@H](C)/C=C/C=C/C=C/C=C/C=C/C=C/C=C/[C@H](O[C@@H]2O[C@H](C)[C@@H](O)[C@H](N)[C@@H]2O)C[C@@H]2O[C@](O)(C[C@@H](O)C[C@@H](O)[C@H](O)CC[C@@H](O)C[C@@H](O)CC(=O)O[C@H]1C)C[C@H](O)[C@H]2C(=O)O [amphotericin B] | 1.08 | 2.16 | 1.16 | 1.16 | 1.16 | 1.16 | 1.16 | 2.16 | 1.16 | 1.16 |  |  |  |  |  | 
5 | CN(Cc1cnc2nc(N)nc(N)c2n1)c1ccc(C(=O)N[C@@H](CCC(=O)O)C(=O)O)cc1 [methotrexate] + OC(Cn1cncn1)(Cn1cncn1)c1ccc(F)cc1F [fluconazole] | 0.656 | 1.04 | 2 | 1.16 | 2.16 | 2.16 | 1.16 | 2.16 | 1.16 | 1.08 |  |  |  |  |  | 
6 | COc1c(C)c2c(c(O)c1C/C=C(\C)CCC(=O)O)C(=O)OC2 [mycophenolic acid] + C[C@@H]1[C@H](O)[C@@H](C)/C=C/C=C/C=C/C=C/C=C/C=C/C=C/[C@H](O[C@@H]2O[C@H](C)[C@@H](O)[C@H](N)[C@@H]2O)C[C@@H]2O[C@](O)(C[C@@H](O)C[C@@H](O)[C@H](O)CC[C@@H](O)C[C@@H](O)CC(=O)O[C@H]1C)C[C@H](O)[C@H]2C(=O)O [amphotericin B] | 1.06 | 1.03 | 1.04 | 1.02 | 1.06 | 1.07 | 1.53 | 1.06 | 1.01 | 1.25 |  |  |  |  |  | 
7 | COc1c(C)c2c(c(O)c1C/C=C(\C)CCC(=O)O)C(=O)OC2 [mycophenolic acid] + OC(Cn1cncn1)(Cn1cncn1)c1ccc(F)cc1F [fluconazole] | 1.25 | 4.25 | 2.02 | 8.5 | 4.25 | 2.27 | 2.53 | 2.25 | 2.25 | 2.25 | 1.06 | 1.03 | 2.5 | 2.12 | -2.6 | -3.21
8 | C=CC[C@@H]1/C=C(\C)C[C@H](C)C[C@H](OC)[C@H]2O[C@@](O)(C(=O)C(=O)N3CCCC[C@H]3C(=O)O[C@H](/C(C)=C/[C@@H]3CC[C@@H](O)[C@H](OC)C3)[C@H](C)[C@@H](O)CC1=O)[C@H](C)C[C@@H]2OC [tacrolimus] + CCC(C)n1ncn(-c2ccc(N3CCN(c4ccc(OCC5COC(Cn6cncn6)(c6ccc(Cl)cc6Cl)O5)cc4)CC3)cc2)c1=O [itraconazole] | 0.5 | 0.51 | 0.5 | 1.01 | 1 | 1 | 0.52 | 0.5 | 0.126 | 2.5 |  |  |  |  |  | 
9 | C=CC[C@@H]1/C=C(\C)C[C@H](C)C[C@H](OC)[C@H]2O[C@@](O)(C(=O)C(=O)N3CCCC[C@H]3C(=O)O[C@H](/C(C)=C/[C@@H]3CC[C@@H](O)[C@H](OC)C3)[C@H](C)[C@@H](O)CC1=O)[C@H](C)C[C@@H]2OC [tacrolimus] + C[C@@H]1[C@H](O)[C@@H](C)/C=C/C=C/C=C/C=C/C=C/C=C/C=C/[C@H](O[C@@H]2O[C@H](C)[C@@H](O)[C@H](N)[C@@H]2O)C[C@@H]2O[C@](O)(C[C@@H](O)C[C@@H](O)[C@H](O)CC[C@@H](O)C[C@@H](O)CC(=O)O[C@H]1C)C[C@H](O)[C@H]2C(=O)O [amphotericin B] | 1 | 0.501 | 0.5 | 0.51 | 1.01 | 0.625 | 0.126 | 1 | 1 | 0.501 |  |  |  |  |  | 
10 | C=CC[C@@H]1/C=C(\C)C[C@H](C)C[C@H](OC)[C@H]2O[C@@](O)(C(=O)C(=O)N3CCCC[C@H]3C(=O)O[C@H](/C(C)=C/[C@@H]3CC[C@@H](O)[C@H](OC)C3)[C@H](C)[C@@H](O)CC1=O)[C@H](C)C[C@@H]2OC [tacrolimus] + OC(Cn1cncn1)(Cn1cncn1)c1ccc(F)cc1F [fluconazole] | 0.5 | 1 | 1 | 1 | 0.5 | 1 | 1 | 1.01 | 1 | 1 |  |  |  |  |  | 
